Measurements reported in US9987368B2, “Pharmaceutical composition comprising polypeptide” (SANTEN PHARMACEUTICAL CO., LTD., priority 2015, dated 2018).

Assays:
[1] = test system: choroidal neovascularization models in rats; settings: US 2007/0149574; cited from earlier work
[2] = test system: VEGF-induced HUVEC proliferation; settings: US 2007/0149574; cited from earlier work
[3] = test system: adjuvant arthritis models in rats; settings: US 2007/0149574; cited from earlier work
[4] = Dissolution performance evaluation test; assay type: physicochemical; settings: for Property: visually checked
Description: Drug dissolving abilities of various solutions were examined.
The compound represented by the above formula (2) (2-[[[2-[(hydroxyacetyl)amino]-4-pyridinyl]methyl]thio]-N-[4-(trifluoromethoxy)phenyl]-3-pyridinecarboxamide, hereinafter also referred to as the drug A; prepared in accordance with the method described in the specification of US Patent Application Publication No. 2007/0149574) was added to each solvent (total 1 mL) out of various solvents of DMSO (GAYLORD), PEG 400 (Nacalai Tesque), and water, and was stirred at room temperature (25° C.) overnight (for 8 hours). Then, the properties of the resultant solvents were visually checked.

cancer models in mice = settings: US 2007/0149574; cited from earlier work
[5] = Depot formation evaluation test (1): gelatinizers in DMSO/water; assay type: physicochemical; settings: solution of DMSO/water at the volume ratio (9:1)
Description: Depot (deposited mass) formations of various kinds of gelatinizers were examined.
Compositions 1 to 6 were prepared by blending each of various kinds of gelatinizers to a solvent of DMSO/water (volume ratio of 9:1) such that the gelatinizer is contained at 0.1% (w/v) (0.1% by mass of the gelatinizer is contained per 100 mL of the solution of DMSO/water). Then, calcium chloride dihydrate and magnesium chloride hexahydrate were dissolved in Dulbecco's phosphate buffered saline (−) (Product No. D-5652 manufactured by Sigma-Aldrich) to prepare Dulbecco's phosphate buffered saline (+). 0.005 mL of each of the compositions was added to 1 mL of the Dulbecco's phosphate buffered saline (+), and the formation of a depot was visually checked. The formation of a depot was evaluated in such a way that the depot is determined as formed if a mass formed of the composition deposited is observed.

[6] = Depot formation evaluation test (2): solvents of the polypeptide A; assay type: physicochemical
Description: Solvents of the polypeptide A were examined.
Compositions 2 to 6 and Comparative Examples 6 and 7 were prepared by adding 0.01 mL of an aqueous solution of the polypeptide A at 1% (w/v) (containing 1% by mass of the polypeptide A per 100 mL of water) to 0.09 mL of each of various solvents, followed by stirring. 0.005 mL of each of the compositions was administered to 1 mL of the Dulbecco's phosphate buffered saline (+), and the formation of a depot was visually checked.

| Compound | choroidal neovascularization inhibitory action [1] | cell proliferation inhibitory action [2] | paw edema inhibitory action [3] | Property ([4]; Test 1: Drug A 20 mg in DMSO 0.9 mL + water 0.1 mL, stirred at room temperature (25° C.) overnight) | Property ([4]; Test 2: Drug A 60 mg in DMSO 0.9 mL + water 0.1 mL, stirred at 25° C. overnight) | Property ([4]; Test 3: Drug A 60 mg in water 1 mL, stirred at 25° C. overnight) | Property ([4]; Test 4: Drug A 25 mg in PEG 400 1 mL, stirred at 25° C. overnight) | Property ([4]; Test 5: Drug A 25 mg in PEG 400 0.9 mL + water 0.1 mL, stirred at 25° C. overnight) | Property ([4]; Test 6: Drug A 25 mg in PEG 400 0.8 mL + water 0.2 mL, stirred at 25° C. overnight) | Property ([4]; Test 7: Drug A 25 mg in water 1 mL, stirred at 25° C. overnight) | Dissolution of the drug in solution containing DMSO or PEG 400 ([4]; solution containing DMSO or PEG 400) | Dissolution of the drug in water ([4]; water) | tumor growth inhibitory action (cancer models in mice) | Depot formation [5] | Depot formation ([6]; DMSO, PEG 200, PEG 400, glycofurol and N-methylpyrrolidone used as the solvents) | Depot formation ([6]; ethanol and N,N-dimethylacetamide used as the solvents) |
| --- | --- | --- | --- | --- | --- | --- | --- | --- | --- | --- | --- | --- | --- | --- | --- | --- |
| O=C(CO)Nc1cc(CSc2ncccc2C(=O)Nc2ccc(OC(F)(F)F)cc2)ccn1 [Drug A, 2-[[[2-[(hydroxyacetyl)amino]-4-pyridinyl]methyl]thio]-N-[4-(trifluoromethoxy)phenyl]-3-pyridinecarboxamide] | demonstrated a choroidal neovascularization inhibitory action | demonstrated a cell proliferation inhibitory action | demonstrated a paw edema inhibitory action | Solution | Solution | Suspension | Solution | Solution | Solution | Suspension | can dissolve the drug | cannot be dissolved in water | demonstrated a tumor growth inhibitory action | – | – | – |
| Ac-(Arg-Ala-Asp-Ala)4-NH2 [polypeptide A] | – | – | – | – | – | – | – | – | – | – | – | – | – | formed a depot | formed a depot | did not form a depot |
